Measured values reported in US8354416B2 (Glaxo Group Limited, priority 2005, dated 2013).
Structures can show the parent of a compound that is named as a salt.

Test system: influx of neutrophils to the lung in LPS-challenged rats
Test: Rat LPS neutrophilia model
Type: in vivo
Settings: intratracheal, LPS aerosol 100 ug/ml, in at least one of the range of conditions tested, significance p<0.05
Protocol: Rat LPS Neutrophilia Model
The effect of compounds on the influx of neutrophils to the lung in LPS-challenged rats is evaluated as follows. The test compound is suspended in one of the following solutions: 0.5% tween 80/PBS, 0.5% tween 80/saline, 10% EtOH/saline (with pH adjusted to 2.0, or 8.0 with HCl, or unadjusted), Saline (pH 2.0, 6.5 or 8.0, 0.5% Tragacanth, 1% DMSO/20% Encapsin/Saline, or acidified 5% Tragacanth. The suspension process may be aided by the use of a glass homogenizer. For intratracheal administration, the animals are anesthetized with inhaled isoflurane and placed in a supine position, the trachea is intubated with a steel gavage needle (1.5 inch, 22 gauge, small ball) or a Penn-Century Microsprayer Aerosolizer (model IA-1B) and 200 ul of dosing solution is delivered. The animals are visually monitored during the recovery process, which typically occurs within two minutes. It is noted that the test compounds may be alternatively administered via the microsprayer in a dry powder blend with a suitable excipient, such as lactose.
Rats treated with compound or vehicle (15 min-24 hours pretreatment) are exposed to an LPS aerosol (100 ug/ml) for 15 min. Four hours later the rats are euthanized with pentobarbital (100 mg/kg, i.p.) and the airways are lavaged with 5 washes of 5 ml of phosphate buffered saline. The harvested cells are stained (Diffquick) and counted to determine total and differential cell data. […] Inhibition of neutrophil levels relative to no compound controls is calculated based on the differential counts.
The data is obtained as % inhibition using a particular concentration and pretreat time.

CCNC(=O)c1ccc(C)c(-c2nc(N3CCC(N4CCC(C)CC4)CC3)nc3c2ccc(=O)n3-c2c(F)cccc2F)c1 [Example 173, 3-[8-(2,6-difluorophenyl)-2-(4-methyl-1,4′-bipiperidin-1′-yl)-7-oxo-7,8-dihydropyrido[2,3-d]pyrimidin-4-yl]-N-ethyl-4-methylbenzamide] was tested. Which “inhibition of neutrophilia (neutrophil levels in airway lavage relative to no compound controls)” value did it give?
The value was “statistically significant inhibition of neutrophilia”.

Which “inhibition of neutrophilia (neutrophil levels in airway lavage relative to no compound controls)” value does the source give for CCCCNC(=O)c1ccc(C)c(-c2nc(N3CCC(N4CCC(C)CC4)CC3)nc3c2ccc(=O)n3-c2c(F)cccc2F)c1 [Example 167, N-butyl-3-[8-(2,6-difluorophenyl)-2-(4-methyl-1,4′-bipiperidin-1′-yl)-7-oxo-7,8-dihydropyrido[2,3-d]pyrimidin-4-yl]-4-methylbenzamide] here?
The value was “statistically significant inhibition of neutrophilia”.

How did the “inhibition of neutrophilia (neutrophil levels in airway lavage relative to no compound controls)” value turn out when CCN(CC)CCCNc1nc(-c2cc(C(=O)Nc3ccccc3)ccc2C)c2ccc(=O)n(-c3c(F)cccc3F)c2n1 [Example 147, 3-[2-{[3-(diethylamino)propyl]amino}-8-(2,6-difluorophenyl)-7-oxo-7,8-dihydropyrido[2,3-d]pyrimidin-4-yl]-4-methyl-N-phenylbenzamide] was run?
The value was “statistically nonsignificant inhibition of neutrophilia”.

How did the “inhibition of neutrophilia (neutrophil levels in airway lavage relative to no compound controls)” value turn out when CNC1CCN(c2nc(-c3cc(C(=O)NC(C)C)ccc3C)c3ccc(=O)n(-c4c(F)cccc4F)c3n2)CC1 [113(b), 3-{8-(2,6-difluorophenyl)-2-[4-(methylamino)-1-piperidinyl]-7-oxo-7,8-dihydropyrido[2,3-d]pyrimidin-4-yl}-4-methyl-N-(1-methylethyl)benzamide] was run?
The value was “statistically nonsignificant inhibition of neutrophilia”.

How did the “inhibition of neutrophilia (neutrophil levels in airway lavage relative to no compound controls)” value turn out when Cc1ccc(C(=O)NC2CC2)cc1-c1nc(NCCN(C)C)nc2c1ccc(=O)n2-c1c(F)cccc1F [Example 25] was run?
The value was “statistically nonsignificant inhibition of neutrophilia”.

With Cc1ccc(C(=O)NC2CCCC2)cc1-c1nc(NCc2ncc[nH]2)nc2c1ccc(=O)n2-c1c(F)cccc1F [Example 76, N-cyclopentyl-3-{8-(2,6-difluorophenyl)-2-[(1H-imidazol-2-ylmethyl)amino]-7-oxo-7,8-dihydropyrido[2,3-d]pyrimidin-4-yl}-4-methylbenzamide] as the compound, how does the “inhibition of neutrophilia (neutrophil levels in airway lavage relative to no compound controls)” value read?
The value was “statistically nonsignificant inhibition of neutrophilia”.

Which “inhibition of neutrophilia (neutrophil levels in airway lavage relative to no compound controls)” value does the source give for Cc1ccc(C(=O)Nc2ccc(F)cc2)cc1-c1nc(N(C)CCN(C)C)nc2c1ccc(=O)n2-c1c(F)cccc1F [Example 99, 3-{8-(2,6-difluorophenyl)-2-[[2-(dimethylamino)ethyl](methyl)amino]-7-oxo-7,8-dihydropyrido[2,3-d]pyrimidin-4-yl}-N-(4-fluorophenyl)-4-methylbenzamide] here?
The value was “statistically nonsignificant inhibition of neutrophilia”.

With Cc1ccc(C(=O)NCC(C)C)cc1-c1nc(N2CCC(N3CCC(C)CC3)CC2)nc2c1ccc(=O)n2-c1c(F)cccc1F [Example 168, 3-[8-(2,6-difluorophenyl)-2-(4-methyl-1,4′-bipiperidin-1′-yl)-7-oxo-7,8-dihydropyrido[2,3-d]pyrimidin-4-yl]-4-methyl-N-(2-methylpropyl)benzamide] as the compound, how does the “inhibition of neutrophilia (neutrophil levels in airway lavage relative to no compound controls)” value read?
The value was “inactive”.

With CCCNC(=O)c1ccc(C)c(-c2nc(N3CCC(N4CCC(C)CC4)CC3)nc3c2ccc(=O)n3-c2c(F)cccc2F)c1 [Example 166, 3-[8-(2,6-difluorophenyl)-2-(4-methyl-1,4′-bipiperidin-1′-yl)-7-oxo-7,8-dihydropyrido[2,3-d]pyrimidin-4-yl]-4-methyl-N-propylbenzamide] as the compound, how does the “inhibition of neutrophilia (neutrophil levels in airway lavage relative to no compound controls)” value read?
Its value is “statistically significant inhibition of neutrophilia”.

How did the “inhibition of neutrophilia (neutrophil levels in airway lavage relative to no compound controls)” value turn out when Cc1ccc(C(=O)Nc2nccs2)cc1-c1nc(NCCCNC(C)C)nc2c1ccc(=O)n2-c1c(F)cccc1F [Example 101, 3-[8-(2,6-difluorophenyl)-2-({3-[(1-methylethyl)amino]propyl}amino)-7-oxo-7,8-dihydropyrido[2,3-d]pyrimidin-4-yl]-4-methyl-N-1,3-thiazol-2-ylbenzamide] was run?
The value was “statistically significant inhibition of neutrophilia”.

For Cc1ccc(C(=O)Nc2ccc(F)cc2)cc1-c1nc(NCCN(C)C)nc2c1ccc(=O)n2-c1c(F)cccc1F [Example 112, 3-(8-(2,6-difluorophenyl)-2-{[2-(dimethylamino)ethyl]amino}-7-oxo-7,8-dihydropyrido[2,3-d]pyrimidin-4-yl)-N-(4-fluorophenyl)-4-methylbenzamide], which “inhibition of neutrophilia (neutrophil levels in airway lavage relative to no compound controls)” value is on record?
Its value is “statistically nonsignificant inhibition of neutrophilia”.

For CCCNC(=O)c1ccc(C)c(-c2nc(N(C)CCCN(C)C)nc3c2ccc(=O)n3-c2c(F)cccc2F)c1 [Example 104, 3-{8-(2,6-difluorophenyl)-2-[[3-(dimethylamino)propyl](methyl)amino]-7-oxo-7,8-dihydropyrido[2,3-d]pyrimidin-4-yl}-4-methyl-N-propylbenzamide], which “inhibition of neutrophilia (neutrophil levels in airway lavage relative to no compound controls)” value is on record?
The value was “statistically significant inhibition of neutrophilia”.

How did the “inhibition of neutrophilia (neutrophil levels in airway lavage relative to no compound controls)” value turn out when CCN(CC)CCCNc1nc(-c2cc(C(=O)N[C@H](C)C(C)C)ccc2C)c2ccc(=O)n(-c3c(F)cccc3F)c2n1 [Example 130] was run?
Its value is “statistically nonsignificant inhibition of neutrophilia”.

Which “inhibition of neutrophilia (neutrophil levels in airway lavage relative to no compound controls)” value does the source give for CCN(CC)CCCNc1nc(-c2cc(C(=O)NCCF)ccc2C)c2ccc(=O)n(-c3c(F)cccc3F)c2n1 [Example 133, 3-[2-{[3-(diethylamino)propyl]amino}-8-(2,6-difluorophenyl)-7-oxo-7,8-dihydropyrido[2,3-d]pyrimidin-4-yl]-N-(2-fluoroethyl)-4-methylbenzamidetrifluoroacetate] here?
The value was “statistically significant inhibition of neutrophilia”.

For CCN(CC)CCCNc1nc(-c2cc(C(=O)NCCOC)ccc2C)c2ccc(=O)n(-c3c(F)cccc3F)c2n1 [Example 134, 3-[2-{[3-(diethylamino)propyl]amino}-8-(2,6-difluorophenyl)-7-oxo-7,8-dihydropyrido[2,3-d]pyrimidin-4-yl]-4-methyl-N-[2-(methyloxy)ethyl]benzamidetrifluoroacetate], which “inhibition of neutrophilia (neutrophil levels in airway lavage relative to no compound controls)” value is on record?
The value was “statistically nonsignificant inhibition of neutrophilia”.

CCN(CC)CCCNc1nc(-c2cc(C(=O)NC3CCC3)ccc2C)c2ccc(=O)n(-c3c(F)cccc3F)c2n1 [Example 137, N-cyclobutyl-3-[2-{[3-(diethylamino)propyl]amino}-8-(2,6-difluorophenyl)-7-oxo-7,8-dihydropyrido[2,3-d]pyrimidin-4-yl]-4-methylbenzamide trifluoroacetate] was tested. Which “inhibition of neutrophilia (neutrophil levels in airway lavage relative to no compound controls)” value did it give?
Its value is “statistically significant inhibition of neutrophilia”.

Cc1ccc(C(=O)Nc2ccc(F)cc2)cc1-c1nc(NC2CC(C)(C)NC(C)(C)C2)nc2c1ccc(=O)n2-c1c(F)cccc1F [Example 66, 3-{8-(2,6-difluorophenyl)-7-oxo-2-[(2,2,6,6-tetramethyl-4-piperidinyl)amino]-7,8-dihydropyrido[2,3-d]pyrimidin-4-yl}-N-(4-fluorophenyl)-4-methylbenzamide] was tested. Which “inhibition of neutrophilia (neutrophil levels in airway lavage relative to no compound controls)” value did it give?
The value was “statistically significant inhibition of neutrophilia”.

For CCN(CC)CCCNc1nc(-c2cc(C(=O)NCC3CCCC3)ccc2C)c2ccc(=O)n(-c3c(F)cccc3F)c2n1 [Example 132, N-(cyclopentylmethyl)-3-[2-{[3-(diethylamino)propyl]amino}-8-(2,6-difluorophenyl)-7-oxo-7,8-dihydropyrido[2,3-d]pyrimidin-4-yl]-4-methylbenzamidetrifluoroacetate], which “inhibition of neutrophilia (neutrophil levels in airway lavage relative to no compound controls)” value is on record?
The value was “statistically nonsignificant inhibition of neutrophilia”.

For Cc1ccc(C(=O)NC(C)C)cc1-c1nc(N2CCC(N)CC2)nc2c1ccc(=O)n2-c1c(F)cccc1F [Example 68, 3-[2-(4-amino-1-piperidinyl)-8-(2,6-difluorophenyl)-7-oxo-7,8-dihydropyrido[2,3-d]pyrimidin-4-yl]-4-methyl-N-(1-methylethyl)benzamide], which “inhibition of neutrophilia (neutrophil levels in airway lavage relative to no compound controls)” value is on record?
Its value is “statistically significant inhibition of neutrophilia”.

Which “inhibition of neutrophilia (neutrophil levels in airway lavage relative to no compound controls)” value does the source give for Cc1ccc(C(=O)Nc2ccc(F)cc2)cc1-c1nc(N(C)CCCN(C)C)nc2c1ccc(=O)n2-c1c(F)cccc1F [Example 115, 3-{8-(2,6-difluorophenyl)-2-[[3-(dimethylamino)propyl](methyl)amino]-7-oxo-7,8-dihydropyrido[2,3-d]pyrimidin-4-yl}-N-(4-fluorophenyl)-4-methylbenzamide] here?
The value was “statistically nonsignificant inhibition of neutrophilia”.

Which “inhibition of neutrophilia (neutrophil levels in airway lavage relative to no compound controls)” value does the source give for Cc1ccc(C(=O)NCc2ccccc2)cc1-c1nc(N2CCC(N)CC2)nc2c1ccc(=O)n2-c1c(F)cccc1F [Example 71, 3-[2-(4-amino-1-piperidinyl)-8-(2,6-difluorophenyl)-7-oxo-7,8-dihydropyrido[2,3-d]pyrimidin-4-yl]-4-methyl-N-(phenylmethyl)benzamide] here?
The value was “statistically nonsignificant inhibition of neutrophilia”.
